Read-outs that look alike come from different tables or passages of the source.

We go through one compound from US11052158B2, “Delivery of urea to cells of the macula and retina using liposome constructs” (priority 2016, dated 2021).

Data set [1] relates to eyes of New Zealand white rabbits. As to conditions: for PVD observations by OCT: OD.
Procedure: Five female New Zealand White rabbits were given a single administration of urea solution IVT into both eyes (OU) at doses of 2.5, 5, 10, 25 and 50 mg/eye.
Prior to placement in the study, each animal underwent an ophthalmic examination (slit-lamp biomicroscopy and indirect ophthalmoscopy). Ocular findings were scored according to a modified McDonald-Shadduck Scoring System. The acceptance criteria for placement on study were scores of “0” for all variables.
All procedures were performed using sterile technique. Animals were anesthetized for IVT injections, OCT, and B-Scan imaging with an IM injection of ketamine hydrochloride (50 mg/kg for imaging, 15-30 mg/kg for IVT injections) and xylazine (5 mg/kg). For one animal, anesthesia was prolonged via inhaled isoflurane (1-1.5% in 1.5-2 L/min oxygen) during baseline imaging due to extended duration of imaging. For another animal, inhaled isoflurane (2% in 1.5 L/min oxygen) was used to anesthetize the animal for IVT injections, because the animal had undergone baseline imaging (which included ketamine/xylazine anesthesia) earlier in the same day. One to two drops of topical proparacaine hydrochloride anesthetic (0.5%) were applied to the animal's eyes prior to the surgical procedure.
Prior to IVT injection, eyes were cleaned with Betadine and then rinsed with BSS. Using a ⅝ inch needle, injections were made 3 to 4 mm away from the limbus. Once the needle had been inserted, urea solution or BSS was injected. The needle was removed and the eye rinsed with BSS. Animals were recovered immediately after dosing and monitored during recovery. Triple antibiotic ophthalmic ointment was administered to the eyes during recovery.
Animals were euthanized on Day 35 (±4) and their eyes (whole globe) were collected and submitted for histopathological analysis.
Ophthalmic examinations (slit-lamp biomicroscopy and indirect ophthalmoscopy) were performed on Days −3 or 0 (baseline prior to test/control article administration), 1, 4, 7 or 8, 14, 21, and 35. Day 4 examinations were performed at the beginning of the workday. Day 21 examinations were performed only on Groups 1, 2, and 5. Ocular findings were scored according to a modified McDonald-Shadduck Scoring System. […] Observations included assessment of the development and time course of PVD.
Images of the fundus were taken on Days −3 or 0 (baseline prior to drug or BSS administration), 1, 4, 7 or 8, 14, 21, and 35. Day 4 images were taken at the beginning of the workday. Day 21 images were taken only of Groups 1, 2, and 5. Animals were not anesthetized for imaging.
OCT was performed on Days −3 or 0 (baseline prior to test/control article administration), 1, 4, 7 or 8, 14, 21, and 35. Day 4 images were taken at the beginning of the workday. Day 21 images were taken only of Groups 1, 2, and 5. Animals were anesthetized as described above. A total of 8 images per rabbit per day was acquired.
B-Scan ultrasound images were taken on Days −3 or 0 (baseline prior to test/control article administration) and on Day 35.
For data set [2] the test system is unchanged.
Source text: Female New Zealand white rabbits were obtained from Western Oregon Rabbit Co. (Philomath, Oreg.) and were housed and cared for in compliance with the regulations of the USDA Animal Welfare Act and under the review and approval of the institution's Animal Care and Use Committee.
Prior to placement on study, each animal underwent an ophthalmic examination (slit-lamp biomicroscopy and indirect ophthalmoscopy). […] The acceptance criteria for placement on study were scores of “0” for all variables.
Six female New Zealand White rabbits (two per subgroup) were administered urea-encapsulated liposome constructs (58 mol % DOPC, 42 mol % cholesterol) intravitreally (IVT) as a single dose into both eyes (OU). Animals were anesthetized with an intramuscular (IM) injection of ketamine hydrochloride (30 mg/kg), xylazine (5 mg/kg), and acepromazine (3 mg/kg) followed by isoflurane by inhalation (1-2.5%) in oxygen (1 L/min). One to two drops of topical proparacaine hydrochloride anesthetic (0.5%) were applied to the animal's eyes prior to the surgical procedure. Animals were kept anesthetized with their heads stabilized for three hours post dose, with one eye facing up and the other eye facing down.
After three hours, a clinical ophthalmic examination was performed, animals were euthanized. Vitreous humor (VH) was collected as 3 fractions. Pupils were dilated using one drop each of 10% phenylephrine and 1% tropicamide. Two 18G needles were inserted into the eye at the 3 o'clock and 9 o'clock position and advanced into the VH, one with the bevel pointed up towards the lens and the other with the bevel pointed down toward the retina. Three hundred μL of VH were drawn up through each needle, after which each needle was removed from the eye. The eye was then harvested and enucleated. Following enucleation, the remaining VH was collected as the third fraction. Samples from each eye in each animal remained separate and were not pooled. The weight of ocular tissues was recorded. Individual VH fractions were weighed separately. VH fractions were centrifuged at 16,100×g at room temperature for 20-30 minutes. The supernatant was separated. Pellets containing liposome constructs and supernatant were snap frozen separately on dry ice and stored at −60 to −80° C. Retina was also collected from these animals, snap frozen on dry ice, and stored at −60 to −80° C.
Two additional animals (one per subgroup) were administered a single or double dose of free urea solution IVT into the right eye (OD) and balanced salt solution (BSS) into the left eye (OS). Animals were anesthetized with an IM injection of ketamine hydrochloride (30 mg/kg) and xylazine (5 mg/kg). One to two drops of topical proparacaine hydrochloride anesthetic (0.5%) were applied to the animal's eyes prior to the surgical procedure.
Clinical ophthalmic examinations, fundus photography, and optical coherence tomography (OCT) were performed in these animals on Days 0-3, 4 (AM and PM), 8 (±1), 14, 21, and 28 post dose. For OCT, pupils were dilated with one drop each of 10% phenylephrine and 1% tropicamide approximately 10-15 minutes prior to imaging. Images were taken using the Spectralis® instrumentation (Heidelberg Engineering, Inc., Heidelberg, Germany).

For the compound `NC(N)=O` [urea, Urea], the “PVD in clinical ophthalmic examinations” value in data set [1] (2.5-50 mg/eye IVT, up to Day 35) is “No evidence of PVD”. The “PVD observations by OCT” value in data set [1] (Group 1, 5 mg urea IVT) is “Partial PVD on Day 35”; in data set [1] (Group 2, 10 mg urea IVT) it was “Partial PVD on Day 7 and beyond”; in data set [1] (Group 5, 2.5 mg urea IVT), “Possible partial PVD on Day 4, none observed”. Besides, the “PVD in B-scan images, Day 35” value is reported as “evidence of PVD in the right eye (OD)” in data set [1] (Group 4, 50 mg/eye) and “no PVD could be detected” in data set [1] (other animals (2.5, 5, 10, 25 mg/eye)). For the same compound, the “vitreous clouding (fundus photography)” value in data set [2] (96 and 192 mg/eye IVT, OD) is listed as “clouding of the OD vitreous from Day 0 through Day 3”. Moreover, the “toxicity from Day 3 onward (fundus imaging)” value in data set [2] (96 and 192 mg/eye IVT, OD, at the site of delivery, peaked Days 3-7) is “severe retinal folding and vascular hemorrhage”. In addition, the “retinal detachment (OCT)” value in data set [2] (96 and 192 mg/eye IVT, peaked between Days 3 and 7, then subsided) is given as “retina had detached mostly at the ganglion cell layer”. For the same compound, the “days on which OCT imaging showed PVD” value is “Day 3” in data set [2] (Subgroup 2a, 96 mg/eye IVT, OD); “Days 4 (AM and PM), 7, and 14” in data set [2] (Subgroup 2b, 192 mg/eye IVT, OD). In addition, the “time to development of PVD” value in data set [2] (free urea 96 mg/eye (single dose) or 192 mg/eye (double dose) IVT, OD) is at most 2 days. For the same compound, the “ocular irritation and swelling after IVT injection” value in data set [2] (immediately after IVT injection, resolved over the next few days in surviving animals) was “ocular irritation and swelling were observed”. In addition, the “adverse effects on body weights and general health” value in data set [2] (single IVT dosing, liposome constructs 56-96 mg total urea/eye, free urea 96 or 192 mg/eye) is “No adverse effects on body weights and no severe adverse effects on general health”.
